Earlier results in US20180263953A1, “Sustained Release Cannabinoid Formulations” (CannTab Therapeutics, Limited, priority 2016, published 2018).

How the values were obtained:
[1] = low solubility and unknown permeability; NICHD/FDA Oral Formulations Platform Report 1
[2] = after administration

Question: With `CCCCCc1cc(O)c2c(c1)OC(C)(C)[C@@H]1CCC(C)=C[C@@H]21` [Dronabinol, (−)-trans-Δ^9-tetrahydrocannabinol] as the molecule, how does the BCS class [1] read?
Answer: class 2 or class 4

Question: And the “duration of appetite stimulant effect” value [2]?
Answer: ≥ 24 h
